Test results as given in US12612368B2 (Remedy Plan, Inc., priority 2019, dated 2026).
pIC50: −log10 of the molar value. Read-outs that look alike come from different tables or passages of the source.

How the values were obtained:
NAMPT = target: T1, NAMPT (Homo sapiens, UniProt P43490); assay: NAMPT Activity Assay (Abcam #ab221819); assay type: biochemical; details: purified NAMPT, two-step reaction, OD450 nm; percent inhibition vs no drug; compound concentration not stated
T1 construct: purchased Abcam ab221819

MV-4-11 cells = assay: Cell viability in MV-4-11 cells (CellTiter Glo2); assay type: cell-based; details: Homo sapiens, MV4-11, 96 h, 8-point dose response, 4 days
Method: Approximately 10,000 MV-4-11 cells per well of a 96-well plate were treated with DMSO (no drug control) or each compound in Tables E1 and E2 in an 8-point dose response for 4 days, Cell viability was measured using CellTiter Glo2. The ICse of each compound was determined using CDD Vault.

[1] = CellTiter Glo2 (Table E2), read-out: MV-4-11 Cell Viability, MV-4-11 IC50
[2] = CellTiter Glo2 (Table E1), read-out: MV-4-11 IC50

T1 sequence (P43490 whole entry): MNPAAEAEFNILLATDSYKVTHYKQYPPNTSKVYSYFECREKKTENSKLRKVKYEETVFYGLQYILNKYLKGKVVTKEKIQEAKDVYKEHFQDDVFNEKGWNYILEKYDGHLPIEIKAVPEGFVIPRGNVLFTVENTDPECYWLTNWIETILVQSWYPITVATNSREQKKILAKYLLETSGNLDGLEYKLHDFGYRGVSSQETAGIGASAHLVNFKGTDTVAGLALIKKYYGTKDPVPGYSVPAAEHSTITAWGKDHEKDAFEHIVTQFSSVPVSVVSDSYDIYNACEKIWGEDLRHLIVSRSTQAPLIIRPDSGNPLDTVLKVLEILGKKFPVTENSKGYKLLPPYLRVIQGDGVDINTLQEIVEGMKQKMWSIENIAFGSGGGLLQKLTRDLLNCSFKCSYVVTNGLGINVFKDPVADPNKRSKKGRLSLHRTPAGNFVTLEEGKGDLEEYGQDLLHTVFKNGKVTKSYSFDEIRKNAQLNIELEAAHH

| NAMPT Inhibition Code (NAMPT) | pIC50 (MV-4-11 cells; [1]) | pIC50 (MV-4-11 cells; [2]) | SMILES |
| --- | --- | --- | --- |
| B (B = ≥33 to <66% inhibition) | 7.69 | – | CC(=O)N(CC1CC(F)(F)C1)c1ccc(-c2ccc(C(=O)NCc3cccnc3)cn2)cc1C [Compound I-600, 6-[4-[Acetyl-[(3,3-difluorocyclobutyl)methyl]amino]-3-methyl-phenyl]-N-(3-pyridylmethyl)pyridine-3-carboxamide] |
| A (A = <33% inhibition) | 5.55 | – | CC(=O)N(CC1CC1)c1ccc(-c2ccc(C(=O)NCc3cccnc3C)cn2)cc1C [Compound I-488, 6-[4-[Acetyl(cyclopropylmethyl)amino]-3-methyl-phenyl]-N-[(2-methyl-3-pyridyl)methyl]pyridine-3-carboxamide] |
| C (C = ≥66% inhibition) | 8.34 | – | Cc1cc(-c2ccc(C(=O)NCc3cccnc3)cn2)ccc1N(C(=O)C(F)F)C(C)C [Compound I-595, 6-[4-[(2,2-Difluoroacetyl)-isopropyl-amino]-3-methyl-phenyl]-N-(3-pyridylmethyl)pyridine-3-carboxamide] |
| A (A = <33% inhibition) | 5.74 | – | COC(=O)NCCC(=O)N(C)c1ccc(-c2ccc(C(=O)NCc3cccnc3C)cn2)cc1C [Compound I-501, Methyl N-[3-[N,2-dimethyl-4-[5-[(2-methyl-3-pyridyl)methylcarbamoyl]-2-pyridyl]anilino]-3-oxo-propyl]carbamate] |
| B (B = ≥33 to <66% inhibition) | – | 6.57 | CCN(C(C)=O)c1ccc(-c2ccc(C(=O)NCc3cccnc3)cn2)cc1C [Compound I-430, 6-[4-[acetyl(ethyl)amino]-3-methyl-phenyl]-N-(3-pyridylmethyl)pyridine-3-carboxamide] |
| C (C = ≥66% inhibition) | – | > 7.93 | CCC(=O)N(CC(C)C)c1ccc(-c2ccc(C(=O)NCc3cccnc3)cn2)cc1 [Compound I-403, 6-[4-[isobutyl(propanoyl)amino]phenyl]-N-(3-pyridylmethyl)pyridine-3-carboxamide] |
| C (C = ≥66% inhibition) | 7.42 | – | CC(=O)N(CC1CCC1)c1ccc(-c2ccc(C(=O)NCc3cccnc3)cn2)cc1 [Compound I-453, 6-[4-[acetyl(cyclobutylmethyl)amino]phenyl]-N-(3-pyridylmethyl)pyridine-3-carboxamide] |
| A (A = <33% inhibition) | – | 5.45 | CCC(=O)N(C)c1ccc(-c2ccc(C(=O)NCc3ccc(C)nc3C)cn2)cc1 [Compound I-394, N-[(2,6-dimethyl-3-pyridyl)methyl]-6-[4-[methyl(propanoyl)amino]phenyl]pyridine-3-carboxamide] |
| C (C = ≥66% inhibition) | 7.44 | – | COC(=O)c1cc(-c2ccc(C(=O)NCc3cccnc3)cn2)ccc1N(C)C(C)=O [Compound I-662, Methyl 2-[acetyl(methyl)amino]-5-[5-(3-pyridylmethylcarbamoyl)-2-pyridyl]benzoate] |
| C (C = ≥66% inhibition) | 6.47 | – | CC(=O)N(CC1CC1)c1ccc(-c2ccc(C(=O)NCc3cccnc3F)cn2)cc1Cl [Compound I-685, 6-[4-[Acetyl(cyclopropylmethyl)amino]-3-chloro-phenyl]-N-[(2-fluoro-3-pyridyl)methyl]pyridine-3-carboxamide] |
| B (B = ≥33 to <66% inhibition) | 6.45 | – | CCc1cc(-c2ccc(C(=O)NCc3cccnc3)cn2)ccc1N(C)C(C)=O [Compound I-605, 6-[4-[Acetyl(methyl)amino]-3-ethyl-phenyl]-N-(3-pyridylmethyl)pyridine-3-carboxamide] |
| A (A = <33% inhibition) | 6.65 | – | CCC(=O)N(CCN)c1ccc(-c2ccc(C(=O)NCc3cccnc3)cn2)cc1C [Compound I-502, 6-[4-[2-aminoethyl(propanoyl)amino]-3-methyl-phenyl]-N-(3-pyridylmethyl)pyridine-3-carboxamide] |
| A (A = <33% inhibition) | 5.36 | – | COC(=O)NCCN(C(C)=O)c1ccc(-c2ccc(C(=O)NCc3cccnc3C)cn2)cc1C [Compound I-487, Methyl N-[2-[N-acetyl-2-methyl-4-[5-[(2-methyl-3-pyridyl)methylcarbamoyl]-2-pyridyl]anilino]ethyl]carbamate] |
| A (A = <33% inhibition) | 6.47 | – | CC(=O)N(CC1CC1)c1ccc(-c2ccc(C(=O)Nc3ccncc3)cn2)cc1Cl [Compound I-684, 6-[4-[Acetyl(cyclopropylmethyl)amino]-3-chloro-phenyl]-N-(4-pyridyl)pyridine-3-carboxamide] |
| C (C = ≥66% inhibition) | 7.87 | – | CC(=O)N(CC1CC1)c1ccc(-c2ccc(C(=O)NCc3cccnc3)cn2)cc1C [Compound I-609, 6-[4-[Acetyl(cyclopropylmethyl)amino]-3-methyl-phenyl]-N-(3-pyridylmethyl)pyridine-3-carboxamide] |
| C (C = ≥66% inhibition) | 6.47 | – | CC(=O)N(CC1CC1)c1ccc(-c2ccc(C(=O)NCc3cncc(F)c3)cn2)cc1Cl [Compound I-690, 6-[4-[Acetyl(cyclopropylmethyl)amino]-3-chloro-phenyl]-N-[(5-fluoro-3-pyridyl)methyl]pyridine-3-carboxamide] |
| B (B = ≥33 to <66% inhibition) | 6.46 | – | CC(=O)N(CC1CC1)c1ccc(-c2ccc(C(=O)NCc3ccnc(N)c3)cn2)cc1Cl [Compound I-674, 6-[4-[Acetyl(cyclopropylmethyl)amino]-3-chloro-phenyl]-N-[(2-amino-4-pyridyl)methyl]pyridine-3-carboxamide] |
| A (A = <33% inhibition) | 5.36 | – | CC(=O)N(CC(C)C)c1ccc(-c2ccc(C(=O)NCc3cccnc3C)cn2)cc1 [Compound I-467, 6-[4-[Acetyl(isobutyl)amino]phenyl]-N-[(2-methyl-3-pyridyl)methyl]pyridine-3-carboxamide] |
| A (A = <33% inhibition) | 5.74 | – | CCOC(=O)NCCC(=O)N(C)c1ccc(-c2ccc(C(=O)NCc3cccnc3C)cn2)cc1C [Compound I-491, Ethyl N-[3-[N,2-dimethyl-4-[5-[(2-methyl-3-pyridyl)methylcarbamoyl]-2-pyridyl]anilino]-3-oxo-propyl]carbamate] |
| C (C = ≥66% inhibition) | 7.17 | – | CC(=O)N(CC(F)F)c1ccc(-c2ccc(C(=O)NCc3cccnc3)cn2)cc1Cl [Compound I-619, 6-[4-[Acetyl(2,2-difluoroethyl)amino]-3-chloro-phenyl]-N-(3-pyridylmethyl)pyridine-3-carboxamide] |
| B (B = ≥33 to <66% inhibition) | 7.20 | – | CC(=O)N(CCC(F)(F)F)c1ccc(-c2ccc(C(=O)NCc3cccnc3)cn2)cc1C [Compound I-601, 6-[4-[Acetyl(3,3,3-trifluoropropyl)amino]-3-methyl-phenyl]-N-(3-pyridylmethyl)pyridine-3-carboxamide] |
| C (C = ≥66% inhibition) | 8.52 | – | CC(C)N(C(=O)C(F)F)c1ccc(-c2ccc(C(=O)NCc3cccnc3)cn2)cc1Cl [Compound I-611, 6-[3-chloro-4-[(2,2-difluoroacetyl)-isopropyl-amino]phenyl]-N-(3-pyridylmethyl)pyridine-3-carboxamide] |
| A (A = <33% inhibition) | – | < 4.52 | CCC(=O)N(C)c1ccc(-c2ccc(C(=O)NCc3ccc(F)nc3)cn2)cc1 [Compound I-393, N-[(6-fluoro-3-pyridyl)methyl]-6-[4-[methyl(propanoyl)amino]phenyl]pyridine-3-carboxamide] |
| B (B = ≥33 to <66% inhibition) | 7.48 | – | CC(=O)N(CCC(F)(F)F)c1ccc(-c2ccc(C(=O)NCc3cccnc3)cn2)cc1Cl [Compound I-604, 6-[4-[Acetyl(3,3,3-trifluoropropyl)amino]-3-chloro-phenyl]-N-(3-pyridylmethyl)pyridine-3-carboxamide] |
| A (A = <33% inhibition) | 6.98 | – | CCC(=O)N(C)c1ccc(-c2ccc(C(=O)NCc3ccc(C)nc3C)cc2)cc1Cl [Compound I-481, 4-[3-chloro-4-[methyl(propanoyl)amino]phenyl]-N-[(2,6-dimethyl-3-pyridyl)methyl]benzamide] |
| A (A = <33% inhibition) | 6.10 | – | CCC(=O)N(C)c1ccc(-c2ccc(C(=O)NCc3ccc(NCCN)nc3)cn2)cc1C [Compound I-527, N-((6-((2-aminoethyl)amino)pyridin-3-yl)methyl)-6-(3-methyl-4-(N-methylpropionamido)phenyl)nicotinamide] |
| B (B = ≥33 to <66% inhibition) | 7.43 | – | CC(=O)N(CC1COC1)c1ccc(-c2ccc(C(=O)NCc3cccnc3)cn2)cc1C [Compound I-610, 6-[4-[Acetyl(oxetan-3-ylmethyl)amino]-3-methyl-phenyl]-N-(3-pyridylmethyl)pyridine-3-carboxamide] |
| C (C = ≥66% inhibition) | – | 5.18 | CCC(=O)N(C)c1ccc(-c2ccc(C(=O)NCc3ccc(Cl)nc3)cn2)cc1 [Compound I-396, N-[(6-chloro-3-pyridyl)methyl]-6-[4-[methyl(propanoyl)amino]phenyl]pyridine-3-carboxamide] |
| C (C = ≥66% inhibition) | 8.25 | – | CC(=O)N(CC1CC1)c1ccc(-c2ccc(C(=O)NCc3cccnc3)cn2)cc1Cl [Compound I-602, 6-[4-[Acetyl(cyclopropylmethyl)amino]-3-chloro-phenyl]-N-(3-pyridylmethyl)pyridine-3-carboxamide] |
| C (C = ≥66% inhibition) | < 6.00 | – | CC(=O)N(CC1CC1)c1ccc(-c2ccc(C(=O)Nc3cccnc3)cn2)cc1Cl [Compound I-683, 6-[4-[Acetyl(cyclopropylmethyl)amino]-3-chloro-phenyl]-N-(3-pyridyl)pyridine-3-carboxamide] |
